The record followed here is US9796741B2 (Achillion Pharmaceuticals, Inc., priority 2014, dated 2017).

Sequence of Human factor D (P00746 26-253): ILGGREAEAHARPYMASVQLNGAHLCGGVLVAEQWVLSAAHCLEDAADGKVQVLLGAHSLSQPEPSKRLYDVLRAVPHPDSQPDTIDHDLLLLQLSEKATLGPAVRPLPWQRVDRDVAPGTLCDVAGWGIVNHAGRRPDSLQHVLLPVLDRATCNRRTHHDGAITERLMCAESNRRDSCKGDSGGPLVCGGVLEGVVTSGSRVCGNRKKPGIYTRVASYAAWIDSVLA

One assay concerns the target Human factor D (Homo sapiens (Human), UniProt P00746). Kind of assay: Human Factor D Assay. The assay is classed as biochemical.
Settings: not given
How it is done:
Human factor D (purified from human serum, Complement Technology, Inc.) at 80 nM final concentration is incubated with test compound at various concentrations for 5 minutes at room temperature in 50 mM Tris, 1M NaCl, pH 7.5. A synthetic substrate Z-L-Lys-SBzl and DTNB (Ellman's reagent) are added to final concentrations of 100 μM each. The increase in color is recorded at OD405 nm in a microplate in kinetic mode over 30 minutes with 30 second time points in a spectrofluorimeter. IC50 values are calculated by non-linear regression from the percentage of inhibition of complement factor D activity as a function of test compound concentration.
One may read the IC50 as the concentration that inhibits the measured activity by half. A lower IC50 goes with higher potency. Molecule `NC(=O)c1nn(CC(=O)N2C[C@H](F)C[C@H]2C(=O)NCc2cccnc2)c2ccc(-c3ccnnc3)cc12` [Compound 39, 1-(2-((2S,4R)-4-fluoro-2-(pyridin-3-ylmethylcarbamoyl)pyrrolidin-1-yl)-2-oxoethyl)-5-(pyridazin-4-yl)-1H-indazole-3-carboxamide] yielded an IC50 of 1 to 10 µM.

The assay is the same for the next values; noted with them: human factor D 80 nM, substrate Z-L-Lys-SBzl, DTNB.
The molecule `NC(=O)c1nn(CC(=O)N2[C@@H]3C[C@@H]3C[C@H]2C(=O)Nc2cccc(-c3ccccc3Cl)c2F)c2ccc(-c3ccc(F)nc3)cc12` [Compound 13, 1-(2-((lR,3S,5R)-3-(2′-chloro-2-fluorobiphenyl-3-ylcarbamoyl)-2-azabicyclo[3.1.0]hexan-2-yl)-2-oxoethyl)-5-(6-fluoropyridin-3-yl)-1H-indazole-3-carboxamide] yielded a concentration for half-maximal inhibition (IC50) of less than 1 µM. `CC(=O)c1cn(CC(=O)N2C[C@H](F)C[C@H]2C(=O)Nc2cccc(Br)n2)c2ccc(-c3cncnc3)cc12` [Compound 14, (2S,4R)-1-(2-(3-acetyl-5-(pyrimidin-5-yl)-1H-indol-1-yl)acetyl)-N-(6-bromopyridin-2-yl)-4-fluoropyrrolidine-2-carboxamide] had an IC50 of less than 1 µM. As to `CC(=O)c1cn(CC(=O)N2[C@@H]3C[C@@H]3C[C@H]2C(=O)Nc2cccc(-c3ccccc3Cl)c2F)c2ccc(-c3cncnc3)cc12` [Compound 15, (1R,3S,5R)-2-(2-(3-acetyl-5-(pyrimidin-5-yl)-1H-indol-1-yl)acetyl)-N-(2′-chloro-2-fluorobiphenyl-3-yl)-2-azabicyclo[3.1.0] hexane-3-carboxamide], the half-inhibitory concentration (IC50) was less than 1 µM. For the molecule `CC(=O)c1cn(CC(=O)N2C[C@H](F)C[C@H]2C(=O)Nc2cccc(-c3ccccc3Cl)c2F)c2ccc(N3CCN(C(C)=O)CC3)cc12` [Compound 16, (2S,4R)-1-(2-(3-acetyl-5-(4-acetylpiperazin-1-yl)-1H-indol-1-yl)acetyl)-N-(2′-chloro-2-fluorobiphenyl-3-yl)-4-fluoropyrrolidine-2-carboxamide], the 50% inhibitory concentration (IC50) is less than 1 µM. Same read-out and setting: next, `CC(=O)c1cn(CC(=O)N2[C@@H]3C[C@@H]3C[C@H]2C(=O)Nc2cccc(Br)n2)c2ccc(-c3cncnc3)cc12` [Compound 17, (1R,3S,5R)-2-(2-(3-acetyl-5-(pyrimidin-5-yl)-1H-indol-1-yl)acetyl)-N-(6-bromopyridin-2-yl)-2-azabicyclo[3.1.0] hexane-3-carboxamide]: less than 1 µM; `NC(=O)c1nn(CC(=O)N2C[C@H](F)C[C@H]2C(=O)NCc2cccc(Cl)c2F)c2cnc(-c3cncnc3)cc12` [Compound 18, 1-(2-((2S,4R)-2-(3-chloro-2-fluorobenzylcarbamoyl)-4-fluoropyrrolidin-1-yl)-2-oxoethyl)-5-(pyrimidin-5-yl)-1H-pyrazolo[3,4-c]pyridine-3-carboxamide]: less than 1 µM. Still for that read-out and setting: the value for `NC(=O)c1nn(CC(=O)N2C[C@H](F)C[C@H]2C(=O)Nc2cccc(-c3ccccc3Cl)c2F)c2cnc(-c3cncnc3)cc12` [Compound 19, 1-(2-((2S,4R)-2-(2′-chloro-2-fluorobiphenyl-3-ylcarbamoyl)-4-fluoropyrrolidin-1-yl)-2-oxoethyl)-5-(pyrimidin-5-yl)-1H-pyrazolo[3,4-c]pyridine-3-carboxamide] was less than 1 µM; that for `CC(=O)c1cn(CC(=O)N2C[C@H](F)C[C@H]2C(=O)Nc2cccc(-c3ccccc3Cl)c2F)c2ccc(-c3ccnnc3)cc12` [Compound 20, (2S,4R)-1-(2-(3-Acetyl-5-(pryridazin-4-yl)-1H-indol-1-yl)acetyl)-N-(2′-chloro-2-fluoro-[1,1′-biphenyl]-3-yl)-4-fluoropyrrolidine-2-carboxamide] was less than 1 µM. On the same count and under the same terms, next, `COc1ncc(-c2ccc3c(c2)c(C(C)=O)cn3CC(=O)N2C[C@H](F)C[C@H]2C(=O)Nc2cccc(Br)n2)cn1` [Compound 21, (2S,4R)-1-(2-(3-acetyl-5-(2-methoxypyrimidin-5-yl)-1H-indol-1-yl)acetyl)-N-(6-bromopyridin-2-yl)-4-fluoropyrrolidine-2-carboxamide]: less than 1 µM; `CN1CC=C(c2ccc3c(c2)c(C(N)=O)nn3CC(=O)N2C[C@H](F)C[C@H]2C(=O)Nc2cccc(Br)n2)CC1` [Compound 22, 1-(2-((2S,4R)-2-(6-bromopyridin-2-ylcarbamoyl)-4-fluoropyrrolidin-1-yl)-2-oxoethyl)-5-(1-methyl-1,2,3,6-tetrahydropyridin-4-yl)-1H-indazole-3-carboxamide]: less than 1 µM.

Molecule `NC(=O)c1nn(CC(=O)N2C[C@H](F)C[C@H]2C(=O)Nc2cccc(Br)n2)c2ccc(-c3ccnnc3)cc12` [Compound 25, 1-(2-((2S,4R)-2-(6-bromopyridin-2-ylcarbamoyl)-4-fluoropyrrolidin-1-yl)-2-oxoethyl)-5-(pyridazin-4-yl)-1H-indazole-3-carboxamide] returned a half-inhibitory concentration (IC50) of less than 1 µM. Same read-out and setting: next, `CC(=O)c1cn(CC(=O)N2C[C@H](F)C[C@H]2C(=O)Nc2cccc(-c3ccccc3Cl)c2F)c2ccc(-c3cnc(N4CCCC4)nc3)cc12` [Compound 26, (2S,4R)-1-(2-(3-acetyl-5-(2-(pyrrolidin-1-yl)pyrimidin-5-yl)-1H-indol-1-yl)acetyl)-N-(2′-chloro-2-fluorobiphenyl-3-yl)-4-fluoropyrrolidine-2-carboxamide]: less than 1 µM; `COc1ncc(-c2ccc3c(c2)c(C(C)=O)cn3CC(=O)N2C[C@H](F)C[C@H]2C(=O)Nc2cccc(-c3ccccc3Cl)c2F)cn1` [Compound 27, (2S,4R)-1-(2-(3-acetyl-5-(2-methoxypyrimidin-5-yl)-1H-indol-1-yl)acetyl)-N-(2′-chloro-2-fluoro-[1,1′-biphenyl]-3-yl)-4-fluoropyrrolidine-2-carboxamide]: less than 1 µM. `COc1ncc(-c2ccc3c(c2)c(C(N)=O)nn3CC(=O)N2C[C@H](F)C[C@H]2C(=O)Nc2cccc(Cl)n2)cn1` [Compound 30, 1-(2-((2S,4R)-2-(6-chloropyridin-2-ylcarbamoyl)-4-fluoropyrrolidin-1-yl)-2-oxoethyl)-5-(2-methoxypyrimidin-5-yl)-1H-indazole-3-carboxamide] had an IC50 of less than 1 µM. The same measure, in the same setting: the value for `CC(=O)c1cn(CC(=O)N2C[C@H](F)C[C@H]2C(=O)Nc2cccc(-c3ccccc3Cl)c2F)c2ccc(N3CCN(c4ncccn4)CC3)cc12` [Compound 31, (2S,4R)-1-(2-(3-acetyl-5-(4-(pyrimidin-2-yl)piperazin-1-yl)-1H-indol-1-yl)acetyl)-N-(2′-chloro-2-fluorobiphenyl-3-yl)-4-fluoropyrrolidine-2-carboxamide] was less than 1 µM.

`CC(=O)c1cn(CC(=O)N2C[C@H](F)C[C@H]2C(=O)Nc2cccc(-c3ccccc3Cl)c2F)c2ccc(N3CCN(c4ncc(F)cn4)CC3)cc12` [Compound 32, (2S,4R)-1-(2-(3-acetyl-5-(4-(5-fluoropyrimidin-2-yl)piperazin-1-yl)-1H-indol-1-yl)acetyl)-N-(2′-chloro-2-fluorobiphenyl-3-yl)-4-fluoropyrrolidine-2-carboxamide] showed a 50% inhibitory concentration (IC50) of less than 1 µM. The same measure, in the same setting: the value for `CC(=O)c1cn(CC(=O)N2C[C@H](F)C[C@H]2C(=O)Nc2cccc(-c3ccccc3Cl)c2F)c2ccc(N3CCN(S(C)(=O)=O)CC3)cc12` [Compound 33, (2S,4R)-1-(2-(3-acetyl-5-(4-(methylsulfonyl)piperazin-1-yl)-1H-indol-1-yl)acetyl)-N-(2′-chloro-2-fluorobiphenyl-3-yl)-4-fluoropyrrolidine-2-carboxamide] was less than 1 µM. Same read-out and setting: next, `CC(=O)c1cn(CC(=O)N2C[C@H](F)C[C@H]2C(=O)Nc2ccccc2-c2nc3ccccc3s2)c2ccc(-c3ccnnc3)cc12` [Compound 34, (2S,4R)-1-(2-(3-acetyl-5-(pyridazin-4-yl)-1H-indol-1-yl)acetyl)-N-(2-(benzo[d]thiazol-2-yl)phenyl)-4-fluoropyrrolidine-2-carboxamide]: more than 10 µM.

In turn, `CC(=O)c1cn(CC(=O)N2C[C@H](F)C[C@H]2C(=O)NCc2ccccn2)c2ccc(-c3ccnnc3)cc12` [Compound 38, (2S,4R)-1-(2-(3-acetyl-5-(pyridazin-4-yl)-1H-indol-1-yl)acetyl)-4-fluoro-N-(pyridin-2-ylmethyl)pyrrolidine-2-carboxamide] had an IC50 of less than 1 µM. `CC(=O)c1cn(CC(=O)N2C[C@H](F)C[C@H]2C(=O)Nc2noc3cc(C(F)(F)F)ccc23)c2ccc(-c3ccnnc3)cc12` [Compound 42, (2S,4R)-1-(2-(3-acetyl-5-(pyridazin-4-yl)-1H-indol-1-yl)acetyl)-4-fluoro-N-(6-(trifluoromethyl)benzo [d]isoxazol-3-yl)pyrrolidine-2-carboxamide]: the IC50 is more than 10 µM. In turn, `CC(=O)c1cn(CC(=O)N2C[C@H](F)C[C@H]2C(=O)NCc2cccc(Cl)c2)c2ccc(-c3ccnnc3)cc12` [Compound 44, (2S,4R)-1-(2-(3-acetyl-5-(pyridazin-4-yl)-1H-indol-1-yl)acetyl)-N-(3-chlorobenzyl)-4-fluoropyrrolidine-2-carboxamide] yielded an IC50 of less than 1 µM. For `NC(=O)c1nn(CC(=O)N2C[C@H](F)C[C@H]2C(=O)NCc2cccc(Cl)c2)c2ccc(-c3ccnnc3)cc12` [Compound 45, 1-(2-((2S,4R)-2-(3-chlorobenzylcarbamoyl)-4-fluoropyrrolidin-1-yl)-2-oxoethyl)-5-(pyridazin-4-yl)-1H-indazole-3-carboxamide], the half-inhibitory concentration (IC50) is less than 1 µM.

For `CC(=O)c1cn(CC(=O)N2C[C@H](F)C[C@H]2C(=O)NCc2cc(F)cc(Cl)c2)c2ccc(-c3ccnnc3)cc12` [Compound 46, (2S,4R)-1-(2-(3-acetyl-5-(pyridazin-4-yl)-1H-indol-1-yl)acetyl)-N-(3-chloro-5-fluorobenzyl)-4-fluoropyrrolidine-2-carboxamide], the half-inhibitory concentration (IC50) is less than 1 µM. On the same count and under the same terms, next, `NC(=O)c1nn(CC(=O)N2C[C@H](F)C[C@H]2C(=O)Nc2cccnc2)c2ccc(-c3ccnnc3)cc12` [Compound 47, 1-(2-((2S,4R)-4-fluoro-2-(pyridin-3-ylcarbamoyl)pyrrolidin-1-yl)-2-oxoethyl)-5-(pyridazin-4-yl)-1H-indazole-3-carboxamide]: more than 10 µM.
